Source: patent US20100179109A1, “RENIN INHIBITORS” (priority 2007, published 2010)

Molecular target: T1, trypsin-activated recombinant human renin (Homo sapiens, UniProt P00797)
T1 sequence (P00797 67-406): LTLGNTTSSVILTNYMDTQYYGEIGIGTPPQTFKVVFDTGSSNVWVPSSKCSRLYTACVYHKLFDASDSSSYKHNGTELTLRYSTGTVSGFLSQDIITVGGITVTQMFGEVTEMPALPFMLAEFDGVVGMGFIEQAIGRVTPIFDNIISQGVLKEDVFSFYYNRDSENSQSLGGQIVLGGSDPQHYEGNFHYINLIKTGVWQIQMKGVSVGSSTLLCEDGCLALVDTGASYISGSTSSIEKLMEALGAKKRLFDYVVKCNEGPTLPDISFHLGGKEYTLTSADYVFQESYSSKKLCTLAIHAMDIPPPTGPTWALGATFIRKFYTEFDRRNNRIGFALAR
Assay: In vitro renin assay, fluorescently labeled peptide, LJL Acquest, results as pIC50 (Example 22)
Assay type: biochemical
Conditions: found not to demonstrate inhibition at concentrations below the stated value
Method: The potency of renin inhibitors was measured using an in vitro renin assay. In this assay, renin-catalyzed proteolysis of a fluorescently labeled peptide converts the peptide from a weakly fluorescent to a strongly fluorescent molecule. The following test protocol was used. Substrate solution (5 μl; 2 μM Arg-Glu-Lys(5-Fam)-Ile-His-Pro-Phe-His-Leu-Val-Ile-His-Thr-Lys(5,6 Tamra)-Arg-CONH2 in 50 mM Hepes, 125 mM NaCl, 0.1% CHAPS, pH 7.4) then trypsin-activated recombinant human renin (Scott, Martin J. et. al. Protein Expression and Purification 2007, 52(1), 104-116; 5 μL; 600 pM renin in 50 mM Hepes, 125 mM NaCl, 0.1% CHAPS, pH 7.4) were added sequentially to a black Greiner low volume 384-well plate (cat.#784076) pre-stamped with a 100 nl DMSO solution of compound at the desired concentration. The assay plates were incubated at room temperature for 2 hours with a cover plate then quenched by the addition of a stop solution (2 μL; 5 μM of Bachem C-3195 in 50 mM Hepes, 125 mM NaCl, 0.1% CHAPS, pH 7.4, 10% DMSO). The assay plates were read on an LJL Acquest using a 485 nm excitation filter, a 530 nm emission filter, and a 505 nm dichroic filter. Compounds were initially prepared in neat DMSO at a concentration of 10 mM. For inhibition curves, compounds were diluted using a three fold serial dilution and tested at 11 concentrations (e.g. 50 μM-0.8 nM or 25 μM-0.42 nM or 2.5 μM to […]). Curves were analyzed using ActivityBase and XLfit, and results were expressed as pIC50 values.

Q: With `CNCc1ccc(C(=O)N2CCOC(C(O)(CCCCOC)c3cccc(Cl)c3-c3nc(C(C)C)c4ccccc4n3)C2)cc1` (centres unmarked) [1-{3-chloro-2-[4-(1-methylethyl)-2-quinazolinyl]phenyl}-1-[4-({4-[(methylamino)methyl]phenyl}carbonyl)-2-morpholinyl]-5-(methyloxy)-1-pentanol] as the compound, how does the IC50 read?
A: The IC50 was ≥ 50 µM.

Q: How did the IC50 turn out when `CNCc1ccc(C(=O)N2CCCC(C(O)(CCCNC(=O)OC)c3cccc(F)c3-c3cccs3)C2)cc1` (centres unmarked) [methyl {4-[3-fluoro-2-(2-thienyl)phenyl]-4-hydroxy-4-[1-({4-[(methylamino)methyl]phenyl}carbonyl)-3-piperidinyl]butyl}carbamate] was run?
A: The IC50 was ≥ 50 µM.

Q: With `COCCCCC(O)(c1cccc(Cl)c1Cc1ccccc1C)C1CCCN(C(=O)c2ccc(CN)cc2)C1` (centres unmarked) [1-(1-{[4-(aminomethyl)phenyl]carbonyl}-3-piperidinyl)-1-{3-chloro-2-[(2-methylphenyl)methyl]phenyl}-5-(methyloxy)-1-pentanol] as the compound, how does the IC50 read?
A: The IC50 was ≥ 50 µM.

Q: Which IC50 does the source give for `COC(=O)NCCCC(O)(c1cccc(F)c1-c1cc(C)cc(OC)c1)C1CN(C(=O)C2CCC(N)C2)CCO1` (centres unmarked) [methyl {4-(4-{[3-aminocyclopentyl]carbonyl}-2-morpholinyl)-4-[6-fluoro-3′-methyl-5′-(methyloxy)-2-biphenylyl]-4-hydroxybutyl}carbamate] here?
A: The IC50 was ≥ 50 µM.

Q: How did the IC50 turn out when `CNCc1ccc(C(=O)N2CCCC(C(O)(CCCCOC)c3cccc(Cl)c3Cc3cccc(C)c3)C2)cc1` (centres unmarked) [1-{3-chloro-2-[(3-methylphenyl)methyl]phenyl}-1-[1-({4-[(methylamino)methyl]phenyl}carbonyl)-3-piperidinyl]-5-(methyloxy)-1-pentanol] was run?
A: The IC50 was ≥ 50 µM.

Q: Which IC50 does the source give for `CCc1cccc(-c2c(Cl)cccc2C(OCCNC(=O)OC)C2CN(C(=O)c3ccc(CNC)cc3)CCO2)c1` (centres unmarked) [methyl [2-({(6-chloro-3′-ethyl-2-biphenylyl)[4-({4-[(methylamino)methyl]phenyl}carbonyl)-2-morpholinyl]methyl}oxy)ethyl]carbamate] here?
A: Its IC50 is ≥ 50 µM.

Q: With `COCCCCC(O)(c1ccccc1Oc1c(C)cccc1C)C1CCCN(C(=O)c2ccc(CN)cc2)C1` (centres unmarked) [1-(1-{[4-(aminomethyl)phenyl]carbonyl}-3-piperidinyl)-1-{2-[(2,6-dimethylphenyl)oxy]phenyl}-5-(methyloxy)-1-pentanol] as the compound, how does the IC50 read?
A: Its IC50 is ≥ 50 µM.

Q: Which IC50 does the source give for `CNCc1ccc(C(=O)N2CCOC(C(O)(CCCNC(=O)OC)c3cccc(F)c3-c3cc(C)cc(OC)c3)C2)cc1` (centres unmarked) here?
A: The IC50 was ≥ 50 µM.
